Assay results as given in patent publication US4394446A, “Process for the preparation of the antibiotic oxanosine” (Zaidan Hojin Biseibutsu Kagaku Kenkyu Kai, priority 1980, dated 1983).
Values after ≈ are worked out from the molar mass of the structure shown. “Also recorded” adds a separate entry of the source.

Key:
[1] = test system: Salmonella enteritidis 1891; test: Antimicrobial spectrum in 0.5% peptone agar; assay type: cell-based; details: Salmonella enterica, read-out: Minimum Growth Inhibition Concentration
Sarcina lutea PCI 1001 = test: Antimicrobial spectrum in 0.5% peptone agar; assay type: cell-based; details: Micrococcus luteus, PCI1001, read-out: Minimum Growth Inhibition Concentration
Escherichia coli K-12 [2] = test: Titer by cup method on peptone-agar plate; assay type: cell-based; details: crystals; titer of culture filtrate designated as 1 u/ml
Protocol: Sakaguchi flasks (500 ml capacity) for a reciprocating type shaking machine were charged with 125 ml of a culture medium (pH value=7.0) comprising 1% of glucose, 1% of glycerol, 1% of sucrose, 0.5% of oat meal, 2% of soybean meal (Prorich supplied by Ajinomoto K.K.), 1% of pressed yeast (supplied by Oriental Kobo Kogyo K.K.), 0.5% of Casamino acid (supplied by Difco Co.) and 0.1% of calcium carbonate, and the culture medium was sterilized at 120° C. for 20 minutes in an autoclave. The culture medium in each was inoculated with one platinum loop of MG265-CF3 (Fermentation Research Institute Deposit No. 5735), and culturing was carried out for 2 days at 28° C. with shaking at 120 rpm. […] (The titer was determined according to the cup method using Escherichia coli K-12 as a test organism on peptone-agar plate, and the titer of the culture filtrate was designated as 1 u/ml.) The filtrate was passed through a column packed with 500 ml of active carbon powder for chromatography (supplied by Wako Junyaku) to absorb the oxanosine on the active carbon. […]

Proteus rettgeri GN 466 = test: Antimicrobial spectrum in 0.5% peptone agar; assay type: cell-based; details: Providencia rettgeri, GN466, read-out: Minimum Growth Inhibition Concentration
[3] = Acute toxicity in the mouse; assay type: in vivo; details: iv
[4] = test system: Staphylococcus aureus FDA 209P; test: Antimicrobial spectrum in 0.5% peptone agar; assay type: cell-based; details: FDA209P, read-out: Minimum Growth Inhibition Concentration
Candida albicans 3147 = test: Antimicrobial spectrum in 0.5% peptone agar; assay type: cell-based; details: read-out: Minimum Growth Inhibition Concentration
[5] = test system: Bacillus subtilis NRRLB-558; test: Antimicrobial spectrum in 0.5% peptone agar; assay type: cell-based; details: NRRLB558, read-out: Minimum Growth Inhibition Concentration
[6] = test system: Klebsiella pneumoniae PCI 602; test: Antimicrobial spectrum in 0.5% peptone agar; assay type: cell-based; details: PCI602, read-out: Minimum Growth Inhibition Concentration
[7] = Antiviral activity (general statement); details: words, no test described
[8] = test system: Bacillus subtilis PCI 219; test: Antimicrobial spectrum in 0.5% peptone agar; assay type: cell-based; details: PCI219, read-out: Minimum Growth Inhibition Concentration
Gram-negative bacteria = test: Antimicrobial spectrum, summary; assay type: cell-based; details: 0.5% peptone agar; words
[9] = test system: Escherichia coli ML1629 (multi-resistant strain); test: Antimicrobial spectrum in 0.5% peptone agar; assay type: cell-based; details: read-out: Minimum Growth Inhibition Concentration
Solubility in solvents = assay type: physicochemical
Escherichia coli K-12 [10] = test: Antimicrobial spectrum in 0.5% peptone agar; assay type: cell-based; details: K12, read-out: Minimum Growth Inhibition Concentration
Escherichia coli NIHJ = test: Antimicrobial spectrum in 0.5% peptone agar; assay type: cell-based; details: read-out: Minimum Growth Inhibition Concentration
Proteus vulgaris OX 19 = test: Antimicrobial spectrum in 0.5% peptone agar; assay type: cell-based; details: OX19, read-out: Minimum Growth Inhibition Concentration
[11] = test system: Micrococcus flavis FDA 16; test: Antimicrobial spectrum in 0.5% peptone agar; assay type: cell-based; details: FDA16, read-out: Minimum Growth Inhibition Concentration
[12] = test system: Corynebacterium bovis 1810; test: Antimicrobial spectrum in 0.5% peptone agar; assay type: cell-based; details: read-out: Minimum Growth Inhibition Concentration
Mouse Leukemia L-1210 = test: Effect against mouse leukemia L-1210, life-prolonging effect; assay type: in vivo, mouse (female, CDF series); details: ip, once each day for 9 days
Protocol: Cells (1×10^5) of leukemia L-1210 were intraperitoneally implanted in each of several groups of 8-week-old female mice of the CDF series (5 mice for each group), a solution of oxanosine in a physiological saline solution was intraperitoneally administered once each day for 9 days, and the carcinostatic effect was evaluated based on the life-prolonging effect (T/C, %).

[13] = test system: Shigella dysenteriae JS 11910; test: Antimicrobial spectrum in 0.5% peptone agar; assay type: cell-based; details: JS11910, read-out: Minimum Growth Inhibition Concentration
Gram-positive bacteria = test: Antimicrobial spectrum, summary; assay type: cell-based; details: 0.5% peptone agar; words
Shigella sonnei JS 11746 = test: Antimicrobial spectrum in 0.5% peptone agar; assay type: cell-based; details: JS11746, read-out: Minimum Growth Inhibition Concentration
HeLa = test: Anti-HeLa activity; assay type: cell-based; details: 72 hours' culturing
Protocol: *number of cells after 72 hours' culturing in the presence of oxanosine

[14] = test system: Proteus mirabilis IFM OM-9; test: Antimicrobial spectrum in 0.5% peptone agar; assay type: cell-based; details: IFMOM9, read-out: Minimum Growth Inhibition Concentration
[15] = test system: Staphylococcus aureus, Smith strain; test: Antimicrobial spectrum in 0.5% peptone agar; assay type: cell-based; details: read-out: Minimum Growth Inhibition Concentration
Serratia marcescens = test: Antimicrobial spectrum in 0.5% peptone agar; assay type: cell-based; details: read-out: Minimum Growth Inhibition Concentration
[16] = test system: Pseudomonas aeruginosa A3; test: Antimicrobial spectrum in 0.5% peptone agar; assay type: cell-based; details: read-out: Minimum Growth Inhibition Concentration
[17] = test system: Mycobacterium smegmatis 607; test: Antimicrobial spectrum in 0.5% peptone agar; assay type: cell-based; details: Mycolicibacterium smegmatis, read-out: Minimum Growth Inhibition Concentration
[18] = test system: Shigella flexneri 4B JS 11811; test: Antimicrobial spectrum in 0.5% peptone agar; assay type: cell-based; details: 4BJS11811, read-out: Minimum Growth Inhibition Concentration
Salmonella typhi T-63 = test: Antimicrobial spectrum in 0.5% peptone agar; assay type: cell-based; details: Salmonella enterica, read-out: Minimum Growth Inhibition Concentration
Proteus rettgeri GN 311 = test: Antimicrobial spectrum in 0.5% peptone agar; assay type: cell-based; details: Providencia rettgeri, GN311, read-out: Minimum Growth Inhibition Concentration
[19] = Carcinostatic activity (general statement); details: words

With `Nc1nc2c(ncn2[C@@H]2O[C@H](CO)[C@@H](O)[C@H]2O)c(=O)o1` [oxanosine] the MIC [1] was over 100 µg/mL, the MIC (Sarcina lutea PCI 1001) was over 100 µg/mL and the titer (Escherichia coli K-12 [2]) was 117 u/mg. The MIC (Proteus rettgeri GN 466) was 12.5 µg/mL (≈ 44 µM), the LD50 ([3]; in vivo) was over 200 mg/kg and the “acute toxicity compared with various known nucleic acid type antibiotic substances” value ([3]; words) was “lower than those of various known nucleic acid type antibiotic substances”. For the same molecule, the MIC [4] was over 100 µg/mL, the MIC (Candida albicans 3147) was over 100 µg/mL and the MIC [5] was over 100 µg/mL. For the same molecule, the MIC [6] was over 100 µg/mL, the antiviral activity [7] was “has carcinostatic and antiviral activity; also recorded: has carcinostatic and antiviral actions” and the MIC [8] was over 100 µg/mL. For the same molecule, the “growth-inhibiting action against Gram-negative bacteria” value (Gram-negative bacteria) was “relatively strong growth-inhibiting action; also recorded: relatively strong inhibitory activity”, the MIC [9] was 25 µg/mL (≈ 88 µM) and the “Solubility in Solvents” value (Solubility in solvents; organic solvents such as ethanol, acetone, ethyl acetate (b147 only), ether, benzene) was “insoluble or only slightly soluble”. For the same molecule, the “Solubility in Solvents” value (Solubility in solvents; water, methanol and dimethylsulfoxide) was “Soluble”, the MIC (Escherichia coli K-12 [10]) was 12.5 µg/mL (≈ 44 µM) and the MIC (Escherichia coli NIHJ) was over 100 µg/mL. It also gave an MIC (Proteus vulgaris OX 19) of 25 µg/mL (≈ 88 µM), an MIC [11] of over 100 µg/mL and an MIC [12] of over 100 µg/mL. The “Life-Prolonging Effect (T/C, %)” value (Mouse Leukemia L-1210; 62.5 μg/mouse/day) was 100%, the “Life-Prolonging Effect (T/C, %)” value (Mouse Leukemia L-1210; 125 μg/mouse/day) was 120% and the “Life-Prolonging Effect (T/C, %)” value (Mouse Leukemia L-1210; 250 μg/mouse/day) was 120%. The “Life-Prolonging Effect (T/C, %)” value (Mouse Leukemia L-1210; 500 μg/mouse/day) was 153%, the “Life-Prolonging Effect (T/C, %)” value (Mouse Leukemia L-1210; 1000 μg/mouse/day) was 160% and the “life-prolonging effect in leukemia L-1210 tumor-bearing mice” value (Mouse Leukemia L-1210; words) was “has a life-prolonging effect”. The MIC [13] was 25 µg/mL (≈ 88 µM), the “growth-inhibiting action against Gram-positive bacteria” value (Gram-positive bacteria) was “does not show growth-inhibiting action” and the MIC (Shigella sonnei JS 11746) was 25 µg/mL (≈ 88 µM). The Cells (HeLa; 0.1 mcg/ml) was 11.70 × 10^5 /plate, the Cells (HeLa; 1 mcg/ml) was 10.31 × 10^5 /plate and the Cells (HeLa; 10 mcg/ml) was 8.68 × 10^5 /plate. The Cells (HeLa; 100 mcg/ml) was 1.08 × 10^5 /plate, the inhibition at 0.1 µg/mL (HeLa; Homo sapiens, HeLa, 0.1 mcg/ml, read-out: Percent Inhibition) was 1.76% and the inhibition at 1 µg/mL (HeLa; Homo sapiens, HeLa, 1 mcg/ml, read-out: Percent Inhibition) was 15.3%. It also gave an inhibition at 10 µg/mL (HeLa; Homo sapiens, HeLa, 10 mcg/ml, read-out: Percent Inhibition) of 31.2%, an inhibition at 100 µg/mL (HeLa; Homo sapiens, HeLa, 100 mcg/ml, read-out: Percent Inhibition) of 100% and an IC50 (HeLa; Homo sapiens, HeLa) of about 30.9 µg/mL (≈ 109 µM). The MIC [14] was 12.5 µg/mL (≈ 44 µM), the MIC [15] was over 100 µg/mL and the MIC (Serratia marcescens) was over 100 µg/mL. The MIC [16] was over 100 µg/mL, the MIC [17] was over 100 µg/mL and the MIC [18] was 6.25 µg/mL (≈ 22 µM). The MIC (Salmonella typhi T-63) was over 100 µg/mL, the MIC (Proteus rettgeri GN 311) was over 100 µg/mL and the carcinostatic activity [19] was “has carcinostatic and antiviral activity; also recorded: has carcinostatic and antiviral actions”.
